Test results: patent US20030134420A1, “Methods and compositions for gene delivery” (priority 2000, published 2003)

Tests used:
[1] = tested on: pCMVLuc luciferase expression per gram of liver; assay: Luciferase expression in liver after tail vein injection of pCMVLuc polyplexes/formulants; details: mice; for Luciferase Average [pg./g liver]: 15 μg of DNA per injection
[2] = Biodistribution and clearance of 125I-pCMVβGal; type: in vivo; details: mice
Procedure: The biodistribution of ^125I-pCMV βGal was also studied in mice. Mice were injected with a dose of 300 μL containing 50 μg/mL of DNA. The distribution of free DNA, free DNA and TCDC, encapsulated in a polyplex comprised of block copolymer (PEG5k-b-(Cys-S—C18)10-b-(Lys)45) and the polyplex with TCDC were tested after 5 (FIG. 17A) and 60 (FIG. 17B) minutes. […] The clearance of ^125I-pCMVβGal was also studied using the ABC Polymer, (PEG5k-b-(Cys-S—C18)10-b-(Lys)45) (BP-A).

SMILES: C[C@H](CCC(=O)NCCC[N+](C)(C)CCCS(=O)(=O)[O-])[C@H]1CC[C@H]2[C@@H]3[C@H](O)C[C@@H]4C[C@H](O)CC[C@]4(C)[C@H]3C[C@H](O)[C@]12C.O [CHAPS, 3-[(3-Cholamidopropyl)dimethylammonio]1-propanesulfonate hydrate]
- Luciferase Average [pg./g liver] ([1]; formulant dose 0.50%): 178 pg./g liver

SMILES: C[C@H](CCC(=O)NCCS(=O)(=O)[O-])[C@H]1CC[C@H]2[C@@H]3[C@@H](O)C[C@@H]4C[C@H](O)CC[C@]4(C)[C@H]3CC[C@]12C.[Na+] [TCDC]
- Luciferase Average [pg./g liver] ([1]; formulant dose 0.50%): 517 pg./g liver
- biodistribution of 125I-pCMVβGal (FIG. 17) ([2]; 300 μL dose, 50 μg/mL DNA, BP-A polyplex with TCDC, 5 and 60 minutes): redirects the polyplex from the lungs and other organs to the blood
- clearance / half-life of 125I-pCMVβGal DNA ([2]; ABC Polymer (BP-A) polyplex, administration of TCDC): greatly enhanced the half-life of the DNA

SMILES: C[C@H](CCC(=O)N(CCCNC(=O)[C@H](O)[C@@H](O)[C@H](O)[C@H](O)CO)CCCNC(=O)[C@H](O)[C@@H](O)[C@H](O)[C@H](O)CO)[C@H]1CC[C@H]2[C@@H]3CC[C@@H]4C[C@H](O)CC[C@]4(C)[C@H]3C[C@H](O)[C@]12C [Deoxy BIGCHAP]
- Luciferase Average [pg./g liver] ([1]; formulant dose 0.50%): 129 pg./g liver

SMILES: C[C@H](CCC(=O)NCCCOCCOCCOCCCN)[C@H]1CC[C@H]2C3[C@H](O)C[C@@H]4C[C@H](O)CCC4(C)[C@H]3C[C@H](O)[C@]12C (stereo partly drawn)
- Luciferase Average [pg./g liver] ([1]; formulant dose 0.10%): 3964 pg./g liver

SMILES: C[C@H](CCC(=O)NCCC[N+](C)(C)CC(O)CS(=O)(=O)[O-])[C@H]1CC[C@H]2[C@@H]3[C@H](O)C[C@@H]4C[C@H](O)CC[C@]4(C)[C@H]3C[C@H](O)[C@]12C (stereo partly drawn) [CHAPSO]
- Luciferase Average [pg./g liver] ([1]; formulant dose 0.50%): 188 pg./g liver

SMILES: CCCCCCC(=O)OC[C@H](COP(=O)([O-])OCC[N+](C)(C)C)OC(=O)CCCCCC [DHPC]
- Luciferase Average [pg./g liver] ([1]; formulant dose 0.40%): 470 pg./g liver
- effect of addition of formulant on luciferase expression (FIG. 15) ([1]; 200 μL dose, 15 μg/mL pCMVLuc, Trigal copolymer polyplexes): greatly enhances the expression of luciferase
